Experiment: xn = mol fraction of the nth substance listed
Details: Liquid, Vibrating tube method

Cc1cccc(C)c1 [1,3-dimethylbenzene] + CCCCCCCCCC
mass density [kg/m3]
Details	293.15 K	303.15 K	313.15 K	323.15 K	333.15 K	343.15 K	353.15 K	363.15 K
100 kPa, x2 = 0	864.2	855	846.7	837.7	829	820	811.3	802.2
100 kPa, x2 = 0.2005	825.1	816	808.1	799.4	791.1	782.3	773.9	765.1
100 kPa, x2 = 0.3999	793.6	784.6	777	768.6	760.5	752	743.8	735.2
100 kPa, x2 = 0.603	768.3	759.3	752	743.9	735.9	727.6	719.6	711.3
100 kPa, x2 = 0.7998	748.3	739.4	732.3	724.4	716.6	708.4	700.5	692.3
1000 kPa, x2 = 0	864.4	855.4	846.9	838.6	829.8	821.1	812.2	803.3
1000 kPa, x2 = 0.2005	825.4	816.7	808.4	800.3	791.9	783.5	774.8	766.2
1000 kPa, x2 = 0.3999	794.1	785.6	777.4	769.5	761.3	753.1	744.7	736.4
1000 kPa, x2 = 0.603	768.8	760.5	752.5	744.7	736.7	728.7	720.5	712.5
1000 kPa, x2 = 0.7998	748.9	740.8	732.8	725.2	717.4	709.4	701.4	693.5
3000 kPa, x2 = 0	865.8	857.5	848.6	840.2	831.7	823	814.3	805.5
3000 kPa, x2 = 0.2005	826.8	818.7	810.1	802	793.8	785.4	777.1	768.6
3000 kPa, x2 = 0.3999	795.4	787.4	779.1	771.3	763.3	755.1	747	738.8
3000 kPa, x2 = 0.603	770.2	762.3	754.1	746.5	738.7	730.7	722.8	714.9
3000 kPa, x2 = 0.7998	750.2	742.4	734.4	727	719.4	711.5	703.7	695.9
5000 kPa, x2 = 0	866.9	858.8	850.1	841.9	833.4	825	816.2	807.6
5000 kPa, x2 = 0.2005	828	820.1	811.7	803.8	795.6	787.5	779.1	770.8
5000 kPa, x2 = 0.3999	796.6	789	780.8	773.1	765.1	757.2	749	741
5000 kPa, x2 = 0.603	771.4	763.9	755.8	748.3	740.5	732.8	724.8	717.1
5000 kPa, x2 = 0.7998	751.5	744	736.1	728.8	721.2	713.6	705.8	698.2
10000 kPa, x2 = 0	870.5	862.3	854	845.9	837.6	829.4	821	812.4
10000 kPa, x2 = 0.2005	831.7	823.8	815.7	808	799.9	792	784	775.7
10000 kPa, x2 = 0.3999	800.4	792.5	784.7	777.3	769.5	761.8	753.9	745.9
10000 kPa, x2 = 0.603	775.2	767.5	759.8	752.6	744.9	737.5	729.8	722
10000 kPa, x2 = 0.7998	755.2	747.7	740.2	733.1	725.7	718.3	710.8	703
15000 kPa, x2 = 0	873.8	865.8	857.6	849.8	841.6	833.6	825.7	817.6
15000 kPa, x2 = 0.2005	835.1	827.3	819.4	811.9	804.1	796.4	788.7	781
15000 kPa, x2 = 0.3999	803.7	796.2	788.5	781.2	773.7	766.1	758.7	751.2
15000 kPa, x2 = 0.603	778.6	771.2	763.6	756.6	749.2	741.8	734.6	727.4
15000 kPa, x2 = 0.7998	758.6	751.4	743.9	737.1	729.9	722.6	715.6	708.5
20000 kPa, x2 = 0	877	869	861.1	853.6	845.6	837.9	829.8	821.8
20000 kPa, x2 = 0.2005	838.3	830.6	822.9	815.8	808.1	800.7	793	785.3
20000 kPa, x2 = 0.3999	807	799.5	792.1	785.1	777.7	770.5	763	755.6
20000 kPa, x2 = 0.603	781.8	774.4	767.2	760.4	753.2	746.2	739	731.7
20000 kPa, x2 = 0.7998	761.8	754.7	747.6	741	733.9	727	720	712.8
25000 kPa, x2 = 0	880.2	872.2	864.5	857	849.3	841.7	834	826
25000 kPa, x2 = 0.2005	841.5	833.8	826.4	819.2	811.9	804.6	797.2	789.5
25000 kPa, x2 = 0.3999	810.2	802.7	795.6	788.6	781.4	774.3	767.2	759.8
25000 kPa, x2 = 0.603	785	777.8	770.7	763.8	756.9	750	743.1	735.9
25000 kPa, x2 = 0.7998	765.1	758	751.1	744.4	737.7	730.9	724.1	717
30000 kPa, x2 = 0	883.2	875.3	867.7	860.4	852.8	845.5	838	830.2
30000 kPa, x2 = 0.2005	844.5	837	829.7	822.7	815.4	808.4	801.2	793.8
30000 kPa, x2 = 0.3999	813.3	805.9	798.8	792.1	785	778.2	771.2	764.1
30000 kPa, x2 = 0.603	788.1	780.9	773.9	767.4	760.5	753.9	747.1	740.2
30000 kPa, x2 = 0.7998	768.2	761.2	754.3	747.9	741.3	734.7	728.1	721.4
35000 kPa, x2 = 0	886	878.2	870.9	863.7	856.2	849.2	841.7	834.2
35000 kPa, x2 = 0.2005	847.3	840.1	833	826	818.9	812.1	805	797.8
35000 kPa, x2 = 0.3999	816.1	809	802.1	795.3	788.4	781.9	775	768.1
35000 kPa, x2 = 0.603	790.9	784.1	777.2	770.6	763.9	757.6	750.9	744.3
35000 kPa, x2 = 0.7998	771	764.3	757.6	751.2	744.7	738.4	731.9	725.4
40000 kPa, x2 = 0	888.7	881	873.8	866.9	859.7	852.5	845.3	838.1
40000 kPa, x2 = 0.2005	850.1	842.9	835.9	829.2	822.4	815.5	808.6	801.7
40000 kPa, x2 = 0.3999	818.8	811.8	805	798.6	792	785.3	778.6	772
40000 kPa, x2 = 0.603	793.7	786.9	780.1	773.9	767.4	761	754.5	748.2
40000 kPa, x2 = 0.7998	773.8	767.1	760.5	754.4	748.2	741.8	735.4	729.3
50000 kPa, x2 = 0	894.4	886.7	879.8	873	866	859.1	852.1	845.2
50000 kPa, x2 = 0.2005	855.8	848.6	841.9	835.3	828.7	822.1	815.4	808.8
50000 kPa, x2 = 0.3999	824.5	817.5	810.9	804.7	798.2	791.9	785.4	779.1
50000 kPa, x2 = 0.603	799.4	792.6	786.1	779.9	773.7	767.6	761.3	755.2
50000 kPa, x2 = 0.7998	779.4	772.8	766.4	760.4	754.4	748.5	742.2	736.3
60000 kPa, x2 = 0	899.1	892	885.1	878.8	871.9	865	858.5	852
60000 kPa, x2 = 0.2005	860.6	853.9	847.2	841.2	834.6	828.1	821.8	815.6
60000 kPa, x2 = 0.3999	829.2	822.7	816.2	810.5	804.2	797.8	791.8	785.8
60000 kPa, x2 = 0.603	804	797.8	791.3	785.8	779.6	773.4	767.6	761.8
60000 kPa, x2 = 0.7998	784.1	778	771.6	766.3	760.4	754.2	748.5	742.9

Reference: the NIST ThermoML archive (doi:10.1016/j.jct.2019.03.025)
